Experiments:
Format in all cases: biochemical
[1] = target: T1, Recombinant human HDAC2 (Homo sapiens, UniProt Q92769); assay: Human HDAC enzyme inhibitor Fluor-de-Lys assay, HDAC2; settings: recombinant human HDAC2, Fluor-de-Lys assay
T1 construct: Full length human HDAC2-FLAG was expressed in baculovirus infected Sf9 cells; FLAG (C); made in house; host or cells: Sf9 (baculovirus)
How it was run: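 Fluor-de-Lys format at room temperature (23° C.): compounds titrated 10-point, 1:3, preincubated with HDAC before substrate addition. Developer with excess HDAC inhibitor ends the reaction, and trypsin-liberated AMC fluorescence is the read-out.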

[2] = target: T2, HDAC6 (Homo sapiens, UniProt Q9UBN7); assay: Human HDAC enzyme inhibitor Fluor-de-Lys assay, HDAC6; settings: HDAC6, Fluor-de-Lys assay
T2 sequence (Q9UBN7 1-1215): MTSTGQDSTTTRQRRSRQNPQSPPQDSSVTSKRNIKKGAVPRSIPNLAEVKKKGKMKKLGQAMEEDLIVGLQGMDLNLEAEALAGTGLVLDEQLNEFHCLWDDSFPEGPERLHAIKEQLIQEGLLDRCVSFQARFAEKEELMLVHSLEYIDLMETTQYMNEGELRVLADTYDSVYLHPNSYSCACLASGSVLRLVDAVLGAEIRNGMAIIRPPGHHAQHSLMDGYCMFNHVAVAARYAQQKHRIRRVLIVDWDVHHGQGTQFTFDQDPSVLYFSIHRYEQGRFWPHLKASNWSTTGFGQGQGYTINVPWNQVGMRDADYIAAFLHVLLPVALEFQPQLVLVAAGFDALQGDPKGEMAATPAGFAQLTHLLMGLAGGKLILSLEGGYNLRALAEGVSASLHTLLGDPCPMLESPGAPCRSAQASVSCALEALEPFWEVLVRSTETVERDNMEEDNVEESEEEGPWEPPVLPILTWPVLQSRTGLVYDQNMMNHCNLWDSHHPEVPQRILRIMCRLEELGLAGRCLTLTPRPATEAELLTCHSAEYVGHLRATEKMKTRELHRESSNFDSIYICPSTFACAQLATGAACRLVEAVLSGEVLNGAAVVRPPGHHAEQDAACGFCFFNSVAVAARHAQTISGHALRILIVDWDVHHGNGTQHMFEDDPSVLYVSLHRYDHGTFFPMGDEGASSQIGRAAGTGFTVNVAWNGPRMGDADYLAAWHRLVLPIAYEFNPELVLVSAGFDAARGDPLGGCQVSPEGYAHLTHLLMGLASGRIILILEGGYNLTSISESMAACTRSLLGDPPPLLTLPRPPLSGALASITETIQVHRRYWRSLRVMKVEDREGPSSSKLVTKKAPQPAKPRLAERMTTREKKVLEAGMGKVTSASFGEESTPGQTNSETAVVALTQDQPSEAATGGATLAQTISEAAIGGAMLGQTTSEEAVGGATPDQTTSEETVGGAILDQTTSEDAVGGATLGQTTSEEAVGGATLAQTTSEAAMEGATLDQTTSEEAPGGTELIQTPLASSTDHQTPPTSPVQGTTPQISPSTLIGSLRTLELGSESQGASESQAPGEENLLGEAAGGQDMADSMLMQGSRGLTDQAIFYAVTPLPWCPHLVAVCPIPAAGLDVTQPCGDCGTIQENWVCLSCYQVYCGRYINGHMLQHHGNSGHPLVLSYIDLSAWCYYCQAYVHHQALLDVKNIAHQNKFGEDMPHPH

[3] = target: T3, Recombinant human HDAC8 (Homo sapiens, UniProt Q9BY41); assay: Human HDAC enzyme inhibitor Fluor-de-Lys assay, HDAC8; settings: recombinant human HDAC8, Fluor-de-Lys assay
T3 construct: purchased Enzo Life Sciences BML-SE145-0100
T3 sequence (Q9BY41 1-377): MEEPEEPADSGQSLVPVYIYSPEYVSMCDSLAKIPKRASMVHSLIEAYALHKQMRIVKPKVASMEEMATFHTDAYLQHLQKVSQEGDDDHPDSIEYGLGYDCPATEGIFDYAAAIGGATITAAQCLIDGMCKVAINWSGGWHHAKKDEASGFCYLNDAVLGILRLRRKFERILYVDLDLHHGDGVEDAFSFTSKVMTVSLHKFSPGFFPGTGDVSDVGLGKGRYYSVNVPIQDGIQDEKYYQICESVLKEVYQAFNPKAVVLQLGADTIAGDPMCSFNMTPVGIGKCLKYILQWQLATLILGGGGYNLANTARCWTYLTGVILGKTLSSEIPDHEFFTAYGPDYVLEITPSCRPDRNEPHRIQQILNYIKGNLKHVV

[4] = target: T4, Recombinant human HDAC3/SMRT heterodimer (Homo sapiens, UniProt O15379); assay: Human HDAC enzyme inhibitor Fluor-de-Lys assay, HDAC3/SMRT; settings: recombinant human HDAC3/SMRT, Fluor-de-Lys assay
T4 construct: FLAG (C); made in house
T4 sequence (O15379 whole entry): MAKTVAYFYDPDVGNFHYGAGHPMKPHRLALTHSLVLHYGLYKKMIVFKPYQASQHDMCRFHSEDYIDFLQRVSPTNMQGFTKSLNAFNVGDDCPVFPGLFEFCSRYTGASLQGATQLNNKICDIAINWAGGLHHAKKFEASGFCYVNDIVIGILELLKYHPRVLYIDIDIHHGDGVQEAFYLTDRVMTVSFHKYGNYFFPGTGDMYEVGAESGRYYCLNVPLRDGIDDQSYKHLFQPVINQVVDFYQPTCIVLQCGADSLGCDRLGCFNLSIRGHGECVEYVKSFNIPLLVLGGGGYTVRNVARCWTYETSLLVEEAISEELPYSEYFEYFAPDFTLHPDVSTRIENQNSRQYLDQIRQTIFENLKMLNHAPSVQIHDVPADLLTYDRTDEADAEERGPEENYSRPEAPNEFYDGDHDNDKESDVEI
T4 sequence (Q9Y618 1-899 partner limits assumed): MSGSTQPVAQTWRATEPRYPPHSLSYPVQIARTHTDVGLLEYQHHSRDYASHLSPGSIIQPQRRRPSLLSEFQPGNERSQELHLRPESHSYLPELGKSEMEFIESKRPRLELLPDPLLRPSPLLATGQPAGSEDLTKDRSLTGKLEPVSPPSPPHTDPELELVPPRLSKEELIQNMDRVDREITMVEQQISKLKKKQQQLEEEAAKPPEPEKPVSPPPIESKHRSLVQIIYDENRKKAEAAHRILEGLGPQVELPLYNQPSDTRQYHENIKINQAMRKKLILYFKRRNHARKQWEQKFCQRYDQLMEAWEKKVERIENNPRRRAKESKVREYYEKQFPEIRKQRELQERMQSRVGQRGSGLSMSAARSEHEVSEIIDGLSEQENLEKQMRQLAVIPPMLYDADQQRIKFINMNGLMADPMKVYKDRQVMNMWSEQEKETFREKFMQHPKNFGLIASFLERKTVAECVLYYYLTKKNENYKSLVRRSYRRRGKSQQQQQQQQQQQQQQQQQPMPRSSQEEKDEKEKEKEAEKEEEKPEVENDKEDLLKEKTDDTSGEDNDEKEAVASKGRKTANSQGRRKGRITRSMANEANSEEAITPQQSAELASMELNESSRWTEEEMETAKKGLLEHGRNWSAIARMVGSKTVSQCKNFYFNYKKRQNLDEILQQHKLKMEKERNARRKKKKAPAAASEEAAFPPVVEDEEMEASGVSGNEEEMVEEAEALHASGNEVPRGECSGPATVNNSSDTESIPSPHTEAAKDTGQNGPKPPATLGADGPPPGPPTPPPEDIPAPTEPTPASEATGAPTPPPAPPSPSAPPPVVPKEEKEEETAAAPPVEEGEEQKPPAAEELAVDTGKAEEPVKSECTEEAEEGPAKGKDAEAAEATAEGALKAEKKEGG

T1 sequence (Q92769 whole entry): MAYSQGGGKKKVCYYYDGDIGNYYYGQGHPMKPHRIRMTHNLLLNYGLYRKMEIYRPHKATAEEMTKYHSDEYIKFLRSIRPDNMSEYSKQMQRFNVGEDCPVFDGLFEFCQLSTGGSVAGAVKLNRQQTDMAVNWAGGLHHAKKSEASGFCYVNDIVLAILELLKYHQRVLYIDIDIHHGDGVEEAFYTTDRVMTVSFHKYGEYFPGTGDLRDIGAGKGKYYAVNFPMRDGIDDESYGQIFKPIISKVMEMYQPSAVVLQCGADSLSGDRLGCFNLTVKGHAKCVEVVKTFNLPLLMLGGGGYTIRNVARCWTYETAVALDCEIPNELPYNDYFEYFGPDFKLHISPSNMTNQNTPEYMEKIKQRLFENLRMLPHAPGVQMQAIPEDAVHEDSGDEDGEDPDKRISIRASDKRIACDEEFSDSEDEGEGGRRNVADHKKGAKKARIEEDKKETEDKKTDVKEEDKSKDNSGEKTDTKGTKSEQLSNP

Question: Which results are given for `CCC(=O)CCCCC[C@H](NC(=O)C1=NOC2(CCN(C)CC2)C1)c1ncc(-c2ccc(-c3ccncc3)cc2OC)o1` [Compound 395]?
Answer: IC50 [1]: 36.3 nM; IC50 [2]: > 900 nM; IC50 [3]: > 900 nM; IC50 [4]: 6.78 nM

Question: Which results are given for `CCC(=O)CCCCC[C@H](NC(=O)C1=NOC2(CCN(C)CC2)C1)c1ncc(-c2cc3ccc(N(C)C)nc3cc2OC)o1` [Compound 397]?
Answer: IC50 [1]: 6.6 nM; IC50 [2]: > 900 nM; IC50 [3]: > 900 nM; IC50 [4]: 2.66 nM

Question: What does the source list for `CCC(=O)CCCCC[C@H](NCC1CC1)c1ncc(-c2cc3ccc(C)nc3cc2OC)[nH]1` [Compound 398, (S)-9-((cyclopropylmethyl)amino)-9-(5-(7-methoxy-2-methylquinolin-6-yl)-1H-imidazol-2-yl)nonan-3-one]?
Answer: IC50 [1]: 810 nM; IC50 [2]: > 900 nM; IC50 [3]: > 900 nM; IC50 [4]: 241 nM

Question: How did the IC50 [1] turn out when `CCC(=O)CCCCC[C@H](NCC1CN(C)C1)c1ncc(-c2cc3ccc(C)nc3cc2OC)o1` [Compound 401, (9S)-9-[5-(7-methoxy-2-methylquinolin-6-yl)-1,3-oxazol-2-yl]-9-{[(1-methylazetidin-3-yl)methyl]amino}nonan-3-one] was run?
Answer: 179 nM

Question: What about the IC50 [2] of the same compound?
Answer: > 900 nM

Question: And the IC50 [3]?
Answer: > 900 nM

Question: And the IC50 [4]?
Answer: 51.3 nM

Question: `CCN[C@@H](CCCCCC(=O)CC)c1ncc(-c2cc3ccc(C)nc3cc2OC)[nH]1` [Compound 403] was tested. Which IC50 [1] did it give?
Answer: > 900 nM

Question: And the IC50 [2]?
Answer: > 900 nM

Question: And the IC50 [3]?
Answer: > 900 nM

Question: What about the IC50 [4] of the same compound?
Answer: 283 nM

Question: With `CCC(=O)CCCCC[C@H](NCc1ccncc1)c1ncc(-c2cc3ccc(C)nc3cc2OC)[nH]1` [Compound 404] as the compound, how does the IC50 [1] read?
Answer: > 900 nM

Question: And the IC50 [2]?
Answer: > 900 nM

Question: What about the IC50 [3] of the same compound?
Answer: > 900 nM

Question: And the IC50 [4]?
Answer: 501 nM

Question: What does the source list for `CCC(=O)CCCCC[C@H](NC(=O)[C@H]1CC12CCN(C)CC2)c1ncc(-c2cc3ccncc3cc2OC)o1` [Compound 405]?
Answer: IC50 [1]: 2 nM; IC50 [2]: 163 nM; IC50 [3]: > 900 nM; IC50 [4]: 0.7 nM

Question: For `CCC(=O)CCCCC[C@H](NC(=O)[C@H]1CC12CCN(C)CC2)c1ncc(-c2cc3ccc(N(C)C)nc3cc2OC)o1` [Compound 406], which IC50 [1] is on record?
Answer: 2.5 nM

Question: And the IC50 [2]?
Answer: > 900 nM

Question: And the IC50 [3]?
Answer: 300 nM

Question: And the IC50 [4]?
Answer: 1.05 nM

Question: Which IC50 [1] does the source give for `CCC(=O)CCCCC[C@H](NC(=O)[C@H]1CC12CCN(C)CC2)c1ncc(-c2cc3ocnc3cc2OC)o1` [Compound 408] here?
Answer: 36.1 nM

Question: What about the IC50 [2] of the same compound?
Answer: 647 nM

Question: What about the IC50 [3] of the same compound?
Answer: > 900 nM

Question: And the IC50 [4]?
Answer: 7.37 nM

Question: `CCC(=O)CCCCCC(N)(COC)c1ncc(-c2cc3ccc(C)nc3cc2OC)[nH]1` (stereo not drawn) [Compound 414, 9-amino-10-methoxy-9-[5-(7-methoxy-2-methylquinolin-6-yl)-1H-imidazol-2-yl]decan-3-one] was tested. Which IC50 [1] did it give?
Answer: > 900 nM

Question: And the IC50 [2]?
Answer: > 900 nM

Question: What about the IC50 [3] of the same compound?
Answer: > 900 nM

Question: What about the IC50 [4] of the same compound?
Answer: > 900 nM

Question: `CCC(=O)CCCCC[C@H](NC(=O)C1=NOC2(CCN(C)CC2)C1)c1ncc(-c2cc3ccncc3cc2OC)o1` [Compound 415] was tested. Which IC50 [1] did it give?
Answer: 33.1 nM

Question: What about the IC50 [2] of the same compound?
Answer: > 900 nM

Question: What about the IC50 [3] of the same compound?
Answer: > 900 nM

Question: And the IC50 [4]?
Answer: 7.82 nM

Question: Which IC50 [1] does the source give for `CCCC(=O)CCCCC[C@H](NC(=O)[C@H]1CC12CCN(CC1CC1)CC2)c1ncc(-c2cc3ccc(C)nc3cc2OC)[nH]1` [Compound 416] here?
Answer: 4.5 nM

Question: And the IC50 [2]?
Answer: > 900 nM

Question: And the IC50 [3]?
Answer: > 900 nM

Question: What about the IC50 [4] of the same compound?
Answer: 1.11 nM

Question: Which results are given for `CCC(=O)CCCCCC(CC)(NC(=O)[C@H]1CC12CCN(CC1CC1)CC2)c1nc(-c2cc3ccc(C)nc3cc2OC)c[nH]1` (stereo partly drawn) [Compound 420, (1S)-6-(cyclopropylmethyl)-N-{3-[4-(7-methoxy-2-methylquinolin-6-yl)-1H-imidazol-2-yl]-9-oxoundecan-3-yl}-6-azaspiro[2.5]octane-1-carboxamide]?
Answer: IC50 [1]: 330 nM; IC50 [2]: > 900 nM; IC50 [3]: > 900 nM; IC50 [4]: 328 nM

Question: With `CCC(=O)CCCCC[C@H](NC(=O)[C@H]1CC12CCN(CC1CC1)CC2)c1ncc(-c2cc3ccc(C)nc3cc2OC)o1` [Compound 422] as the compound, how does the IC50 [1] read?
Answer: 0.7 nM

Question: What about the IC50 [2] of the same compound?
Answer: 113 nM

Question: And the IC50 [3]?
Answer: > 900 nM

Question: And the IC50 [4]?
Answer: 0.08 nM

Question: With `CCCC(=O)CCCCC[C@H](N)c1ncc(-c2cc3ccc(C)nc3cc2OC)[nH]1` [Compound A30] as the compound, how does the IC50 [1] read?
Answer: 304 nM

Question: What about the IC50 [2] of the same compound?
Answer: > 900 nM

Question: And the IC50 [3]?
Answer: 542 nM

Question: And the IC50 [4]?
Answer: 95.6 nM

Reference: patent publication US12590099B2, “Inhibitors of histone deacetylase useful for the treatment or prevention of HIV infection” (Merck Sharp & Dohme LLC, priority 2018, dated 2026)
